Assay results published in ChEMBL document CHEMBL1141047, “4-Phenyl-1,2,3,6-tetrahydropyridine, an excellent fragment to improve the potency of PARP-1 inhibitors” (Bioorg Med Chem Lett, 2005).

What follows are molecules tested against Poly [ADP-ribose] polymerase 1 (Homo sapiens, UniProt P09874).
Poly [ADP-ribose] polymerase 1, sequence (P09874 whole entry): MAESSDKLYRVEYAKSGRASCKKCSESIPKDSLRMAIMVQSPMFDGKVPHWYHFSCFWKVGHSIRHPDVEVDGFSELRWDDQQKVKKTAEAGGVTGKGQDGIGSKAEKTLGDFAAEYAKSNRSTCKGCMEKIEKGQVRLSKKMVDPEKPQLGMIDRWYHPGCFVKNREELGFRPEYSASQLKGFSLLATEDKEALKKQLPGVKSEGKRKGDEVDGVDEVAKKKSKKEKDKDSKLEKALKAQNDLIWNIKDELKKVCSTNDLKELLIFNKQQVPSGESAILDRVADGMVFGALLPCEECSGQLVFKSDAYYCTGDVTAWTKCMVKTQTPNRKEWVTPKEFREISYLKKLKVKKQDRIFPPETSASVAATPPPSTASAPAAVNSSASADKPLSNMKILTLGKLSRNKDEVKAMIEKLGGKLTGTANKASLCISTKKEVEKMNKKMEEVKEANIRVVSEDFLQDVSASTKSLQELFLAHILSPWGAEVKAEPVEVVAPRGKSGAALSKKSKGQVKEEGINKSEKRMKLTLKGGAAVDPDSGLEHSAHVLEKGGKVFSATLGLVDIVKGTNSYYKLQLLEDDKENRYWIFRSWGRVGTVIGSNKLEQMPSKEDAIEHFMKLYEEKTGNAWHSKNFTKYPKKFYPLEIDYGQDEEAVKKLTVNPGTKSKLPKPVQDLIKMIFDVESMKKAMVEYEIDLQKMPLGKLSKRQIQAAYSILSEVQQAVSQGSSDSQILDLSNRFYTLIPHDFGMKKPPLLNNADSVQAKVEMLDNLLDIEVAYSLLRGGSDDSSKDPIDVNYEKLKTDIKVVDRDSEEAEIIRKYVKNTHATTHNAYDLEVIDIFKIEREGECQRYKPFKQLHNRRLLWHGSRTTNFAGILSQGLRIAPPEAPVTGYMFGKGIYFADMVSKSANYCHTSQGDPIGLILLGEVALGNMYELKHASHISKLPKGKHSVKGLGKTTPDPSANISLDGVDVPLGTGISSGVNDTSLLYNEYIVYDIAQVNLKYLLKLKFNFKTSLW
Description: In vitro inhibitory concentration against Poly(ADP-ribose) polymerase 1
With `O=C1N=C(CCCN2CC=C(c3ccccc3)CC2)NC2CCCCC12` (centres undefined) the IC50 was 20 nM.
`O=C1N=C(CCCN2CC=C(c3ccccc3)CC2)NC2CCCCCC12` (centres undefined) was tested, and the IC50 was 495 nM.
`CC1(C)CCC2NC(CCCN3CC=C(c4ccccc4)CC3)=NC(=O)C2C1` (centres undefined) was tested, and the IC50 was greater than 10000 nM.
Molecule `CC1=NC(=O)C2CSCCC2N1` (centres undefined) has an IC50 of 467 nM.
`O=c1[nH]c2cc(CN3CCOCC3)ccc2c2ccccc12` gave an IC50 of 23 nM.
For `Oc1nnc(CCCCCN2CCOCC2)c2ccccc12`, the IC50 was 119 nM.
Molecule `O=C1NC(CCCN2CC=C(c3ccccc3)CC2)=NC2CCSCC12` (centres undefined) has an IC50 of 8.9 nM.
Molecule `O=c1[nH]c2ccc(CCCCN3CC=C(c4ccccc4)CC3)cc2c2ccccc12` has an IC50 of 119 nM.
`O=C1N=C(CCCN2CC=C(c3ccccc3)CC2)NC2CCOCC12` (centres undefined) gave an IC50 of 200 nM.
`CC1CCC2NC(CCCN3CC=C(c4ccccc4)CC3)=NC(=O)C2C1` (centres undefined) gave an IC50 of 274 nM.
`CN1CCC2NC(CCCN3CC=C(c4ccccc4)CC3)=NC(=O)C2C1` (centres undefined) was tested, and the IC50 was 6100 nM.
Molecule `O=C1N=C(CCCN2CC=C(c3ccccc3)CC2)NC2CCNCC12` (centres undefined) has an IC50 of 8600 nM.
Molecule `O=C1NC(CCCN2CC=C(c3ccccc3)CC2)=NC2CCCC12` (centres undefined) has an IC50 of 249 nM.
`O=c1[nH]nc(CCCCN2CCOCC2)c2ccccc12` gave an IC50 of 950 nM.
